Laboratory results reported in patent publication US20090088377A1, “CYSTEIC ACID DERIVATIVES OF ANTI-VIRAL PEPTIDES” (priority 2007, published 2009).

Experiments:
[1] = test system: NL4-3 with DIV (G36D) mutation in gp41; conditions: NL4-3, in vitro; cited from earlier work
HPIV-3 = conditions: HPIV-3-infected Hep2 cells and uninfected CV-1W cells; cited from earlier work
RSV = conditions: RSV-infected and uninfected Hep-2 cells; cited from earlier work
HIV-1 IIIB = assay: Anti-HIV efficacy evaluation in fresh human PBMCs (albumin conjugates vs original peptides); type: cell-based; conditions: NA = IC50 not achieved
Procedure: HIV-1 IIIB was obtained through the AIDS Research and Reference Reagent Program, Division of AIDS, NIAID, NIH courtesy of Dr. Robert C. […] Fresh human peripheral blood mononuclear cells (PBMCs), seronegative for HIV and HBV, were isolated from blood of screened donors (Biological Specialty Corporation; Colmar, Pa.) using Lymphocyte Separation Medium (LSM; Cellgro® by Mediatech, Inc.; density 1.078+/−0.002 g/ml) following the manufacturer's instructions. Cells were stimulated by incubation in 4 μg/mL Phytohemagglutinin (PHA; Sigma) for 48-72 hours. Mitogenic stimulation was maintained by the addition of 20 U/mL recombinant human IL-2 (R&D Systems, Inc) to the culture medium. PHA-stimulated PBMCs from at least two donors were pooled, diluted in fresh medium and added to 96-well plates at 5×10^4 cells/well. Cells were infected (final MOI≅0.1) in the presence of 9 different concentrations of test compounds (triplicate wells/concentration) and incubated for 7 days. […] Following removal of supernatant samples, compound cytotoxicity was measured by the addition of 3-(4,5-dimethylthiazol-2-yl)-5-(3-carboxymethoxyphenyl)-2-(4-sulfophenyl)-2H-tetrazolium (MTS; CellTiter 96 Reagent, Promega) following the manufacturer's instructions. […] AZT (nucleoside reverse transcriptase inhibitor) was used as the assay control compound.

[2] = biological target: HIV-1 transmembrane glycoprotein gp41 (strain HIV-1 IIIB) (HIV-1 strain IIIB) (UniProt P04578); assay: cell-based or functional assay
[3] = HIV-1 IIIB in PHA-stimulated PBMCs, 7 days

In the case of enfuvirtide, the “Resistance conferred by the DIV (G36D) mutation in gp41” value [1] is listed as 8 fold.

In the case of “NSVALDPIDISIELNKAKSDLEESKEWIRRSNQKL [SEQ ID NO:27]”, the “Concentration inhibiting fusion and syncytia formation” value (HPIV-3) is listed as “less than 1 μg/ml”.

In the case of “IALLSTNKAVVSLSNGVSVLTSKVLDLKNYIDK [SEQ ID NO:24]”, the “Concentration inhibiting fusion and syncytia formation” value (RSV) is listed as “less than 50 μg/ml”.

In the case of Cc1cn([C@H]2C[C@H](N=[N+]=[N-])[C@@H](CO)O2)c(=O)[nH]c1=O [AZT], the IC50 (HIV-1 IIIB; [3]) is reported as 2.9 nM, the IC90 (HIV-1 IIIB; [3]) is reported as 26.9 nM and the “Selectivity Index” value (HIV-1 IIIB; from TC50 (MTS) and IC50 in PBMCs) is reported as over 346.

“T-20 (DP-178, enfuvirtide, Fuzeon) (peptide)” showed an IC50 (50% inhibition of virus replication), HIV-1 IIIB in PBMC [2] of 2.2 nM and an IC90 (90% inhibition of virus replication), HIV-1 IIIB in PBMC [2] of 9.5 nM.

C34 peptide showed an IC50 (50% inhibition of virus replication), HIV-1 IIIB in PBMC [2] of 0.6 nM.
